Measured values: patent US12077483B2, “Modified amine lipids” (Intellia Therapeutics, Inc., priority 2018, dated 2024)
Values joined by “and” are separate entries in the source; they are usually repeats but may differ in a detail not shown here. Equal values may be shown once.

Legend:
[1] = tested on: mouse TTR; assay: Serum TTR ELISA in mice after LNP delivery; format: in vivo
In short: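 Mouse TTR in serum was quantified by ELISA (samples diluted e.g. 10,000- and/or 2,500-fold) 6–7 days after dosing CD-1 females with LNP, typically 0.1 mpk. Values are reported relative to vehicle-treated controls (%).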

[2] = RNA encapsulation efficiency of LNP (Ribogreen fluorescence assay); format: physicochemical; conditions: for % E: Table 13, LNP sgRNA:Cas9 mRNA 1:2 w/w
In short: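 LNP samples diluted in 1× TE with or without 0.2% Triton-X 100 for total or free RNA, stained ~10 min at room temperature in the dark with RiboGreen; fluorescence ex 488/em 525 nm against RNA standard curves. Encapsulation efficiency = (Total RNA−Free RNA)/Total RNA.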

[3] = LNP average particle size and polydispersity by dynamic light scattering; format: physicochemical
In short: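 LNPs were diluted in PBS to a count rate of about 200-400 kcps and measured by DLS on a Zetasizer. Size is the intensity-weighted Z-average diameter, reported with number-average diameter, and the polydispersity index describes the spread of sizes around the mean.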

[4] = pKa of amine lipid by TNS fluorescence; format: physicochemical; conditions: probe TNS (6-(p-toluidino)-2-naphthalenesulfonic acid sodium salt), unformulated amine lipid in ethanol, sodium phosphate buffers -9.0
In short: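 pKa derived from a sigmoidal fit of normalized TNS fluorescence (321 nm excitation, 448 nm emission) versus pH. Lipid from ethanol stock diluted to about 100 μM final in 0.1 M phosphate buffers, pH 4.5–9.0.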

[5] = LNP with the compound as amine lipid, Expt. 3, composition ratio (mol %) 50/9/38/3 for Cmpnd 49, 50/10/38.5/1.5 for the others
[6] = LNP with the compound as amine lipid, Expt. 5, composition ratio (mol %) 50/10/38.5/1.5
[7] = LNP with the compound as amine lipid, Expt. 9, composition ratio (mol %) 50/9/38/3 for Cmpnd 49, 50/10/38.5/1.5 for the others
[8] = Table 10, LNP with G00534 sgRNA:Cas9 mRNA 1:2 w/w
[9] = Table 13, LNP sgRNA:Cas9 mRNA 1:2 w/w, N/P 6.0
[10] = mouse serum, relative to TSS control of same experiment, dose 0.1 mpk
[11] = LNP with the compound as amine lipid, Expt. 1, composition ratio (mol %) 50/9/38/3 for Cmpnd 49, 50/10/38.5/1.5 for the others
[12] = Table 7, G00282, CD-1 female mice i.v., dose 0.1 mpk
[13] = Table 7, G00282, CD-1 female mice i.v., dose 0.1 mpk, percentage of vehicle control
[14] = Table 7, G00282, CD-1 female mice i.v., dose 0.3 mpk
[15] = Table 7, G00282, CD-1 female mice i.v., dose 0.3 mpk, percentage of vehicle control
[16] = Table 6, LNP with G00282 sgRNA:Cas9 mRNA 1:1 w/w
[17] = LNP with the compound as amine lipid, Expt. 4, composition ratio (mol %) 50/9/38/3 for Cmpnd 49, 50/10/38.5/1.5 for the others
[18] = Table 4, LNP with G00282 sgRNA:Cas9 mRNA 1:1 w/w, N/P 6.0
[19] = LNP with the compound as amine lipid, Expt. 2, composition ratio (mol %) 50/9/39.5/3 for Cmpnd 49, 50/9/39.5/1.5 for the others
[20] = LNP with the compound as amine lipid, Expt. 6, composition ratio (mol %) 50/9/38/3 for Cmpnd 49, 50/10/38.5/1.5 for the others
[21] = LNP with the compound as amine lipid, Expt. 7, composition ratio (mol %) 50/9/38/3 for Cmpnd 49, 50/10/38.5/1.5 for the others
[22] = LNP with the compound as amine lipid, Expt. 8, composition ratio (mol %) 50/9/38/3 for Cmpnd 49, 50/10/38.5/1.5 for the others
[23] = LNP with the compound as amine lipid, Expt. 10, composition ratio (mol %) 50/9/38/3 for Cmpnd 49, 50/10/38.5/1.5 for the others

## CCCCC/C=C\C/C=C\CCCCCCCC(=O)OCC(COC(=O)CCCCCCC/C=C\C/C=C\CCCCC)OC(=O)CCC(CCCCCC)OC(=O)NCCN1CCCC1 (racemic) [Compound 50, 2-((4-(((2-(pyrrolidin-1-yl)ethyl)carbamoyl)oxy)decanoyl)oxy)propane-1,3-diyl (9Z,9′Z,12Z,12′Z)-bis(octadeca-9,12-dienoate)]
[1]; mouse serum, relative to TSS control of same experiment, dose 0.03 mpk, 0.03 mg/kg
  Serum TTR % TSS: 71.3 % TSS and 45.51 % TSS and 70.1 % TSS
[2]; [5]
  Encapsulation (%): 98%
[2]; [6]
  Encapsulation (%): 98%
[2]; [7]
  Encapsulation (%): 97%
[2]; [8]
  Encapsulation (%): 87%
[2]; N/P 6.0
  % E: 97%
[3]; [5]
  Num Ave Size (nm): 76.57 nm
  PDI: 0.02
  Z-Ave Size (nm): 94.33 nm
[3]; [6]
  Num Ave Size (nm): 77 nm
  PDI: 0.06
  Z-Ave Size (nm): 103.00 nm
[3]; [7]
  Num Ave Size (nm): 78 nm
  PDI: 0.04
  Z-Ave Size (nm): 98 nm
[3]; [8]
  Num Avg Size (nm): 79.18 nm
  PDI: 0.050
  Z-Avg Size (nm): 98.55 nm
[3]; [9]
  Number Average [nm]: 84.16 nm
  PDI: 0.021
  Z-Ave Size (nm): 102.8 nm
[4]
  pKa: 6.5

## CCCCC/C=C\C/C=C\CCCCCCCC(=O)OCC(COC(=O)CCCCCCC/C=C\C/C=C\CCCCC)OC(=O)CCC(CCCCCCCCCCCC)OC(=O)OCCCN(C)C (stereo not shown) [Compound 1, 2-((4-(((3-(dimethylamino)propoxy)carbonyl)oxy)hexadecanoyl)oxy)propane-1,3-diyl (9Z,9′Z,12Z,12′Z)-bis(octadeca-9,12-dienoate)]
[1]; Table 3, guide G282, CD-1 female mice, 0.1 mpk i.v., Exp. 1, 8, 9, 10
  Serum TTR: 671 µg/mL
[1]; Table 3, guide G282, CD-1 female mice, 0.1 mpk i.v., percentage of vehicle control (TSS)
  Serum TTR % TSS: 76% TSS
[1]; [10]
  Serum TTR % TSS: 48.49 % TSS
[2]; [11]
  Encapsulation (%): 99%
[3]; [11]
  Num Ave Size (nm): 54.84 nm
  PDI: 0.04
  Z-Ave Size (nm): 68.63 nm
[4]
  pKa: 6.35

## CCCCC/C=C\C/C=C\CCCCCCCC(=O)OCC(COC(=O)CCCCCCC/C=C\C/C=C\CCCCC)OC(=O)CCC(CCCCCCCCCCCC)OC(=O)OCCCN1CCCC1 (stereo not shown) [Compound 5, 2-((4-(((3-(pyrrolidin-1-yl)propoxy)carbonyl)oxy)hexadecanoyl)oxy)propane-1,3-diyl (9Z,9′Z,12Z,12′Z)-bis(octadeca-9,12-dienoate)]
[1]; [12]
  Serum TTR: 549 µg/mL
[1]; [13]
  Serum TTR % TSS: 67% TSS
[1]; [14]
  Serum TTR: 233 µg/mL
[1]; [15]
  Serum TTR % TSS: 28% TSS
[2]; [16]
  Encapsulation (%): 99%
[3]; [16]
  Num Ave Size (nm): 62.64 nm
  PDI: 0.009
  Z-Ave Size (nm): 76.02 nm
[4]
  pKa: 6.25

## CCCCC/C=C\C/C=C\CCCCCCCC(=O)OCC(COC(=O)CCCCCCC/C=C\C/C=C\CCCCC)OC(=O)CCC(CCCCCCCCCCCC)OC(=O)NCCN(C)CC (stereo not shown) [Compound 7, 2-((4-(((2-(ethyl(methyl)amino)ethyl)carbamoyl)oxy)hexadecanoyl)oxy)propane-1,3-diyl (9Z,9′Z,12Z,12′Z)-bis(octadeca-9,12-dienoate)]
[1]; Table 3, guide G282, CD-1 female mice, 0.1 mpk i.v., Exp. 1, 8, 9, 10, 0.1 mg/kg
  Serum TTR: 270 µg/mL and 271 µg/mL
[1]; Table 3, guide G282, CD-1 female mice, 0.1 mpk i.v., percentage of vehicle control (TSS), 0.1 mg/kg
  Serum TTR % TSS: 31% TSS and 33% TSS
[1]; mouse serum, relative to TSS control of same experiment, dose 0.03 mpk
  Serum TTR % TSS: 58% TSS
[1]; [10]
  Serum TTR % TSS: 10% TSS
[2]; [17]
  Encapsulation (%): 98%
[2]; [18]
  Encapsulation (%): 97%
[3]; [17]
  Num Ave Size (nm): 73.07 nm
  PDI: 0.002
  Z-Ave Size (nm): 87.61 nm
[3]; [18]
  Num Ave Size (nm): 68.39 nm
  PDI: 0.033
  Z-Ave Size (nm): 85.09 nm
[4]
  pKa: 6.36

## CCCCC/C=C\C/C=C\CCCCCCCC(=O)OCC(COC(=O)CCC(OCCCCCCCC)OCCCCCCCC)COC(=O)OCCCN(CC)CC (stereo not shown) [Compound 49, 3-((4,4-bis(octyloxy)butanoyl)oxy)-2-((((3-(diethylamino)propoxy)carbonyl)oxy)methyl)propyl (9Z,12Z)-octadeca-9,12-dienoate, reference compound]
[1]; [12]
  Serum TTR: 254 µg/mL
[1]; [13]
  Serum TTR % TSS: 31% TSS
[1]; [14]
  Serum TTR: 40 µg/mL
[1]; [15]
  Serum TTR % TSS: 5% TSS
[2]; [11]
  Encapsulation (%): 98%
[2]; [19]
  Encapsulation (%): 98%
[2]; [5]
  Encapsulation (%): 93%
[2]; [17]
  Encapsulation (%): 98%
[2]; [6]
  Encapsulation (%): 98%
[2]; [20]
  Encapsulation (%): 99%
[2]; [21]
  Encapsulation (%): 93%
[2]; [22]
  Encapsulation (%): 98%
[2]; [7]
  Encapsulation (%): 98%
[2]; [23]
  Encapsulation (%): 98%
[2]; [18]
  Encapsulation (%): 98%
[2]; [16]
  Encapsulation (%): 99%
[2]; [8]
  Encapsulation (%): 97%
[2]; N/P 6.0
  % E: 98%
[3]; [11]
  Num Ave Size (nm): 69.84 nm
  PDI: 0.05
  Z-Ave Size (nm): 87.92 nm
[3]; [19]
  Num Ave Size (nm): 73.13 nm
  PDI: 0.014
  Z-Ave Size (nm): 88.36 nm
[3]; [5]
  Num Ave Size (nm): 63.19 nm
  PDI: 0.03
  Z-Ave Size (nm): 77.07 nm
[3]; [17]
  Num Ave Size (nm): 66.26 nm
  PDI: 0.026
  Z-Ave Size (nm): 81.83 nm
[3]; [6]
  Num Ave Size (nm): 65 nm
  PDI: 0.03
  Z-Ave Size (nm): 83.00 nm
[3]; [20]
  Num Ave Size (nm): 74 nm
  PDI: 0.02
  Z-Ave Size (nm): 90.00 nm
[3]; [21]
  Num Ave Size (nm): 63.19 nm
  PDI: 0.026
  Z-Ave Size (nm): 77.07 nm
[3]; [22]
  Num Ave Size (nm): 69.01 nm
  PDI: 0.026
  Z-Ave Size (nm): 84.47 nm
[3]; [7]
  Num Ave Size (nm): 70 nm
  PDI: 0.04
  Z-Ave Size (nm): 87 nm
[3]; [23]
  Num Ave Size (nm): 75 nm
  PDI: 0.04
  Z-Ave Size (nm): 90 nm
[3]; [18]
  Num Ave Size (nm): 69.51 nm
  PDI: 0.007
  Z-Ave Size (nm): 84.93 nm
[3]; [16]
  Num Ave Size (nm): 69.75 nm
  PDI: 0.011
  Z-Ave Size (nm): 83.63 nm
[3]; [8]
  Num Avg Size (nm): 69.85 nm
  PDI: 0.028
  Z-Avg Size (nm): 87.84 nm
[3]; [9]
  Number Average [nm]: 74.82 nm
  PDI: 0.015
  Z-Ave Size (nm): 93.14 nm
